The NIST ThermoML archive (doi:10.1016/j.jct.2005.02.014)

Experiment: molar heat capacity at constant pressure
Conditions: 101.33 kPa, Crystal

[Gd+3].[Gd+3].[O-2].[O-2].[O-2] [gadolinium sesquioxide]
Conditions | molar heat capacity at constant pressure [J/K/mol]
177.31 K | 80.7
178.65 K | 81.16
179.29 K | 81.37
180 K | 81.58
181.27 K | 81.94
181.59 K | 82.04
183.25 K | 82.48
184.54 K | 82.86
185.23 K | 83.08
187.21 K | 83.64
187.49 K | 83.73
189.2 K | 84.23
190.44 K | 84.56
191.18 K | 84.81
193.16 K | 85.14
193.39 K | 85.31
195.15 K | 85.81
196.34 K | 86.05
197.13 K | 86.3
199.11 K | 86.89
199.29 K | 86.89
200 K | 87.05
201.1 K | 87.39
202.24 K | 87.63
203.08 K | 87.88
205.07 K | 88.38
205.19 K | 88.38
207.05 K | 88.8
208.15 K | 89.05
209.04 K | 89.3
211.03 K | 89.8
211.11 K | 89.8
213.01 K | 90.21
214.07 K | 90.46
215 K | 90.71
216.99 K | 91.13
217.03 K | 91.13
218.97 K | 91.54
219.98 K | 91.79
220 K | 91.79
220.96 K | 92.04
222.94 K | 92.46
222.95 K | 92.46
224.93 K | 92.87
225.89 K | 93.04
226.92 K | 93.29
228.85 K | 93.7
228.91 K | 93.62
230.9 K | 94.12
231.81 K | 94.2
232.89 K | 94.45
234.77 K | 94.87
234.87 K | 94.87
236.86 K | 95.28
237.72 K | 95.45
238.17 K | 95.62
238.8 K | 95.53
240 K | 95.87
240.35 K | 95.95
240.69 K | 95.95
242.83 K | 96.36
243.65 K | 96.53
245.3 K | 96.78
246.61 K | 97.03
247.77 K | 97.28
249.58 K | 97.53
250.25 K | 97.61
252.54 K | 98.11
252.72 K | 98.11
255.2 K | 98.19
255.52 K | 98.28
257.67 K | 98.78
258.49 K | 98.86
260 K | 99.11
260.15 K | 99.19
261.46 K | 99.44
262.63 K | 99.61
264.43 K | 99.86
265.1 K | 100
267.4 K | 100.4
267.57 K | 100.4
270.05 K | 100.8
270.36 K | 100.9
272.53 K | 101.2
273.33 K | 101.3
275.01 K | 101.6
276.31 K | 101.8
277.49 K | 102
279.28 K | 102.3
279.96 K | 102.3
280 K | 102.3
282.25 K | 102.7
282.44 K | 102.6
284.92 K | 103
285.23 K | 103.1
287.4 K | 103.4
288.2 K | 103.5
289.88 K | 103.8
291.17 K | 104
292.35 K | 104.1
294.15 K | 104.4
294.83 K | 104.5
297.13 K | 105
297.32 K | 105
298.15 K | 105.1
299.8 K | 105.2
300 K | 105.2
300.11 K | 105.2
302.28 K | 105.4
303.09 K | 105.6
304.77 K | 105.6
304.91 K | 105.8
306.07 K | 106
307.26 K | 106
307.89 K | 106.2
309.06 K | 106.4
309.74 K | 106.4
310.86 K | 106.6
312.04 K | 106.7
312.23 K | 106.7
313.84 K | 106.8
314.72 K | 106.9
315.03 K | 107
316.82 K | 107.2
317.21 K | 107.2
318.02 K | 107.3
319.7 K | 107.4
319.8 K | 107.6
320 K | 107.6
321.01 K | 107.7
322.19 K | 107.8
322.77 K | 108
324 K | 108.1
324.68 K | 108.2
325.75 K | 108.3
326.99 K | 108.4
327.18 K | 108.3
329.67 K | 108.6
331.72 K | 108.9
334.69 K | 109.2
337.67 K | 109.5
340 K | 109.7
340.65 K | 109.8
343.63 K | 110
346.62 K | 110.3
349.6 K | 110.6
352.59 K | 110.8
355.58 K | 111.1
358.57 K | 111.4
360 K | 111.5
361.56 K | 111.6
364.55 K | 111.9
367.55 K | 112
370.55 K | 112.2
373.55 K | 112.5
376.55 K | 112.7
379.55 K | 113
380 K | 113
382.56 K | 113.2
385.56 K | 113.4
388.57 K | 113.6
391.59 K | 113.8
394.6 K | 113.9
397.62 K | 114
400.65 K | 114.2
